Measurements as given in patent US10130619B2, “Amido thiadiazole derivatives as NADPH oxidase inhibitors” (GENKYOTEX SUISSE SA, priority 2014, dated 2018).

Molecular target: hNOX1 (Homo sapiens (Human), UniProt Q9Y5S8)
Assay: ROS production measurement on hNOX1 membranes (Amplex Red fluorescence assay, assay 1)
Format: biochemical
Conditions: assay 1: membranes from CHO cells overexpressing hNox1, Amplex Red/HRP fluorescence, NADPH 30 μM; non linear regression (GraphPad Prism); read-out: Nox1 inhibitory constant Ki
Procedure: Reactive oxygen species (ROS) production generated by hNOX1 enzyme was measured by fluorescence in both cellular and membrane-based assays using the Amplex® Red reagent. In the presence of horseradish peroxidase (HRP), the Amplex® Red reagent (10-acetyl-3,7-dihydroxyphenoxazine, AR), which is a colorless and nonfluorescent derivative of dihydroresorufin, reacts with H2O2 with a 1:1 stoichiometry to produce highly fluorescent resorufin at an excitation and emission wavelengths of 544 nm and 590 nm, respectively.
After resuspension in sonication buffer (11% sucrose, 120 mM NaCl, 1 mM EGTA in PBS, pH 7.4), cells were broken by sonication and centrifuged (200 g, 10 min). The supernatant was layered onto a 17/40% (w/v) discontinuous sucrose gradient and centrifuged (150,000 g for 30 min). Membrane fractions were collected from the 17/40% interface, aliquoted in 10 μl samples and were stored at −80° C. Protein concentration was determined with Bradford reagent. Flavin Adenine Dinucleotide (FAD) (catalog # F6625-500MG), MgCl2 (catalog # M8266-100G), Phosphatidic Acid (PA) (catalog # P3591-50MG) were purchased from Sigma-Aldrich. […] NADPH (catalog #A1395, 0500) was purchased from Applichem. Amplex red (AR) (catalog # A22177) was purchased from Invitrogen. […] FLUOstar OPTIMA microplate reader was supplied by BMG Labtech (Germany). Zephyr® Compact Liquid Handling Workstation was supplied by PerkinElmer (Germany).
Assay 1: ROS Production Measurement on hNOX1 Membranes
All solutions were placed on ice and protected from light.
The NADPH was dissolved in water at a concentration of 12 mM and was transferred in a metal transfer plate kept at 4° C. The NADPH was added to the assay plate to initiate the reaction just before the measurement.
Serial dilution (1:3, 10 serial dilution) of the compounds was performed in 100% DMSO in 96 well polypropylene plate—Row B-H […], Row A, Column 1-10 contained reference compound. Starting concentration was 10^−2 M (10 mM). Final concentration in assay was 10^−4 M (100 μM). Compounds were diluted twice in PBS buffer by transferring 30 μl/well of PBS into 30 μl/well compounds sample in DMSO using Zephyr® Compact Liquid Handling Workstation. Control wells-columns 1 and 12-contained 60 μl DMSO in 50% PBS pH7.
Reaction mixture is dispensed using Zephyr® Compact Liquid Handling Workstation. 90 μl of mix with membrane were dispensed into 96 well black plates—Column 2-11, Column 1 Row A-D, Column 12 Row E-H. 90 μl of control mix were dispensed into assay plate—Column 1 Row E-H, Column 12 Row A-D, which are wells for measuring background signal. 2 μl of compounds were dispensed into each well of assay plate using Zephyr® Compact Liquid Handling Workstation. The reaction mixture with compounds was incubated in assay plates for 20 min at 37° C. in a Titramax microplate incubator with gentle agitation. 10 μl of NADPH is dispensed to the assay plate. Fluorescence reading was recorded with the FLUOstar OPTIMA microplate reader for 10 min at 37° C. (8 cycles, 1 cycle duration 55 sec).

Sequence of hNOX1 (Q9Y5S8 whole entry): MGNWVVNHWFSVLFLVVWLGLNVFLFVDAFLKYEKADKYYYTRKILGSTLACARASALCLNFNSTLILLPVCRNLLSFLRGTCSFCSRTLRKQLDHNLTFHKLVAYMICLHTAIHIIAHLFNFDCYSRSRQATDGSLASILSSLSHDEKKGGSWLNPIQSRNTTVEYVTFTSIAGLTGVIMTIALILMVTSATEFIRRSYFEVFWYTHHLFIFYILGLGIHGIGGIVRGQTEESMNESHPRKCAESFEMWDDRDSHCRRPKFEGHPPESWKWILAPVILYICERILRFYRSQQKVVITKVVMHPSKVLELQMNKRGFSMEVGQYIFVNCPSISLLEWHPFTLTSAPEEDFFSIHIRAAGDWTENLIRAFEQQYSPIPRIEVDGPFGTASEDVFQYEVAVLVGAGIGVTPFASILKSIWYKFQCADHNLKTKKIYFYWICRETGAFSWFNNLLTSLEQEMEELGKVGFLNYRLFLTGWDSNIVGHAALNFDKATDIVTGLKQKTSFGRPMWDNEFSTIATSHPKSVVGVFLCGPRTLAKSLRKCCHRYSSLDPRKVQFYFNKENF
Sequence of hNOX1 (P13498 whole entry partner): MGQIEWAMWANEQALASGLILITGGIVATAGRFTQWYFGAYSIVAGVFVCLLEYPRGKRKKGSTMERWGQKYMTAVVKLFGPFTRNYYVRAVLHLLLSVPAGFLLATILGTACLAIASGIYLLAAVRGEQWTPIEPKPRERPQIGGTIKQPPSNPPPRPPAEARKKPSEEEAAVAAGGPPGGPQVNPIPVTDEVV

Row | Compound | Ki [nM]
1 | Cc1nc(O[C@@H](C)c2ccccc2)ccc1C(=O)Nc1nnc(-c2ccncc2)s1 [(43)] | 79
2 | Cc1nc(OCc2ccccc2)ccc1C(=O)Nc1nnc(-c2ccncc2)s1 [(45)] | 77
3 | COc1cc(C(=O)Nc2nnc(-c3ccncc3)s2)cnc1O[C@@H](C)c1ccccn1 [(46)] | 35
4 | C[C@H](Oc1ncc(C(=O)Nc2nnc(-c3ccncc3)s2)cc1NCCN(C)C)c1ccccc1 [(51)] | 21
5 | C[C@H](Oc1ncc(C(=O)Nc2nnc(-c3ccncc3)s2)cc1NCC1CCOCC1)c1ccccc1 [(52)] | 18
6 | C[C@H](Oc1ncc(C(=O)Nc2nnc(-c3ccncc3)s2)cc1NCC1CCN(C)CC1)c1ccccc1 [(53)] | 19
7 | C[C@H](Oc1ncc(C(=O)Nc2nnc(-c3ccncc3)s2)cc1NCCCN(C)C)c1ccccc1 [(63)] | 31
8 | C[C@H](Oc1ncc(C(=O)Nc2nnc(-c3ccncc3)s2)cc1NCCO)c1ccccc1 [(65)] | 51
9 | C[C@H](Oc1ncc(C(=O)Nc2nnc(-c3ccncc3)s2)cc1NCc1cn(C)cn1)c1ccccc1 [(66)] | 66
10 | C[C@H](Oc1ncc(C(=O)Nc2nnc(-c3ccncc3)s2)cc1NC1CCN(C)CC1)c1ccccc1 [(67)] | 75
11 | C[C@H](Oc1ncc(C(=O)Nc2nnc(-c3ccncc3)s2)cc1NCCN1CCOCC1)c1ccccc1 [(68)] | 72
12 | C[C@H](Oc1ncc(C(=O)Nc2nnc(-c3ccncc3)s2)cc1N1CCN(C)CC1)c1ccccc1 [(69)] | 55
13 | CNc1cc(C(=O)Nc2nnc(-c3ccncc3)s2)cnc1O[C@@H](CCN(C)C)c1ccccc1 [(75)] | 90
14 | COc1cc(C(=O)Nc2nnc(-c3ccncc3)s2)ccc1O[C@@H]1CCc2ccccc21 [(80)] | 27
15 | COc1cc(C(=O)Nc2nnc(-c3ccncc3)s2)ccc1OC1CCCc2ccccc21 (centres unmarked) [(82)] | 38
16 | COc1cc(C(=O)Nc2nnc(-c3ccncc3)s2)ccc1OCc1cscn1 [(83)] | 80
17 | CC(Oc1ccc(C(=O)Nc2nnc(-c3ccncc3)s2)cc1OCCN(C)C)c1ccccc1 (centres unmarked) [(85)] | 37
18 | COCCOc1cc(C(=O)Nc2nnc(-c3ccncc3)s2)ccc1OC(C)c1ccccc1 (centres unmarked) [(86)] | 74
19 | COc1cc(C(=O)Nc2nnc(-c3ccncc3)s2)ccc1OCc1cccnc1C [(89)] | 91
20 | COc1cc(C(=O)Nc2nnc(-c3ccncc3)s2)ccc1OCc1ccc(C)cn1 [(90)] | 100
21 | COc1cc(C(=O)Nc2nnc(-c3ccncc3)s2)ccc1OCc1cc(C)on1 [(91)] | 78

Row | Compound | Ki [nM]
22 | COc1ccc(COc2ccc(C(=O)Nc3nnc(-c4ccncc4)s3)cc2OC)cc1 [(92)] | 32
23 | COc1cc(C(=O)Nc2nnc(-c3ccncc3)s2)ccc1OCc1ccccc1F [(93)] | 52
24 | COc1cc(C(=O)Nc2nnc(-c3ccncc3)s2)ccc1OCc1ccc(F)cc1 [(96)] | 14
25 | COc1cc(C(=O)Nc2nnc(-c3ccncc3)s2)ccc1OCc1cc(C2CC2)on1 [(98)] | 74
26 | COc1cc(C(=O)Nc2nnc(-c3ccncn3)s2)ccc1O[C@@H](C)c1ccccn1 [(102)] | 87
27 | COc1cc(C(=O)Nc2nnc(-c3ccncc3F)s2)ccc1O[C@@H](C)c1ccccn1 [(103)] | 13
28 | COc1cc(C(=O)Nc2nnc(-c3ccncc3F)s2)ccc1O[C@@H](CO)c1ccccc1 [(105)] | 19
29 | COc1cc(C(=O)Nc2nnc(-c3ccncc3F)s2)ccc1O[C@@H](CN(C)C)c1ccccc1 [(106)] | 22
30 | O=C(Nc1nnc(-c2ccncc2)s1)c1cnc(O[C@@H](CO)c2ccccc2)c(Cl)c1 [(108)] | 92
31 | COc1cc(C(=O)Nc2nnc(-c3ccncn3)s2)ccc1OCc1ccccc1 [(111)] | 75
32 | COc1cc(C(=O)Nc2nnc(-c3ccncn3)s2)cnc1O[C@@H](CN(C)C)c1ccccc1 [(114)] | 37
33 | COc1cc(C(=O)Nc2nnc(-c3ccnc(C)c3)s2)ccc1O[C@@H](CN(C)C)c1ccccc1 [(115)] | 110
34 | COc1cc(C(=O)Nc2nnc(-c3ccncc3)s2)ccc1O[C@@H](C)Cc1ccccc1 [(116)] | 46
35 | COc1cc(C(=O)Nc2nnc(-c3ccncc3)s2)ccc1CN(C)c1ccccn1 [(120)] | 93
36 | COc1cc(C(=O)Nc2nnc(-c3ccncc3)s2)ccc1Cn1ccc2ccccc21 [(121)] | 35
37 | CCC(Oc1ccc(C(=O)Nc2nnc(-c3ccncc3)s2)cn1)c1ccccc1 (centres unmarked) [(134)] | 71
38 | O=C(Nc1nnc(-c2ccncc2)s1)c1ccc(OC2CCc3ccccc32)nc1 (centres unmarked) [(136)] | 47
39 | C[C@H](Nc1ccc(C(=O)Nc2nnc(-c3ccncc3)s2)cn1)c1ccccc1 [(149)] | 78
40 | COc1cc(C(=O)Nc2nnc(-c3ccncc3)s2)ccc1OC1CCc2ncccc21 (centres unmarked) [(151)] | 15
41 | COc1cc(C(=O)Nc2nnc(-c3ccncc3)s2)ccc1OC1COc2ccccc21 (centres unmarked) [(152)] | 38
42 | COc1cc(C(=O)Nc2nnc(-c3ccncc3)s2)ccc1OC(c1ccccc1)C1CC1 (centres unmarked) [(154)] | 33

Row | Compound | Ki [nM]
43 | COc1cc(C(=O)Nc2nnc(-c3ccncn3)s2)ccc1O[C@@H](C)c1ccccc1 [(157)] | 110
44 | COc1cc(C(=O)Nc2nnc(-c3ccncc3)s2)ccc1OC1Cc2ccccc2C1 [(158)] | 22
45 | COc1cc(C(=O)Nc2nnc(-c3ccncc3)s2)ccc1OCCc1ccccc1 [(161)] | 79
46 | COc1cc(C(=O)Nc2nnc(-c3ccncc3)s2)ccc1OCc1ccn(C)n1 [(162)] | 95
47 | O=C(Nc1nnc(-c2ccncc2)s1)c1ccc(OCc2ccccc2)cc1F [(168)] | 100
48 | CN(C)C(=O)[C@H](Cc1ccccc1)Oc1ccc(C(=O)Nc2nnc(-c3ccncc3)s2)cn1 [(174)] | 96
49 | C[C@H](COc1ccc(C(=O)Nc2nnc(-c3ccncc3)s2)cn1)c1ccccc1 [(178)] | 85
50 | COc1ccc(CCCOc2ccc(C(=O)Nc3nnc(-c4ccncc4)s3)cn2)cc1 [(180)] | 32
51 | Cc1cc(C(=O)Nc2nnc(-c3ccncc3)s2)cnc1O[C@@H](CN1CCOCC1)c1ccccc1 [(182)] | 37
52 | COCC(Oc1ccc(C(=O)Nc2nnc(-c3ccncc3)s2)cc1OC)c1ccccc1 (centres unmarked) [(183)] | 55
53 | COc1cc(C(=O)Nc2nnc(-c3ccncc3)s2)ccc1O[C@H](CN1CCOCC1)c1ccccc1 [(185)] | 89
54 | O=C(Nc1nnc(-c2ccncc2)s1)c1ccc(O[C@@H](CN2CCC(F)(F)C2)c2ccccc2)nc1 [(187)] | 55
55 | COc1cc(C(=O)Nc2nnc(-c3ccncc3)s2)ccc1O[C@@H](CO)c1ccc(F)cc1 [(197)] | 24
56 | COc1cc(C(=O)Nc2nnc(-c3ccncc3)s2)ccc1O[C@@H](CN(C)C)c1ccc(F)cc1 [(198)] | 25
57 | COc1cc(C(=O)Nc2nnc(-c3ccncc3)s2)ccc1O[C@H](CO)c1ccc(F)cc1 [(199)] | 47
58 | COc1cc(C(=O)Nc2nnc(-c3ccncc3)s2)ccc1O[C@H](CN(C)C)c1ccc(F)cc1 [(200)] | 110
59 | CC(Oc1ccc(C(=O)Nc2nnc(-c3ccncc3)s2)cc1OCC1CCNCC1)c1ccccc1 (centres unmarked) [Example 1, 4-(1-phenylethoxy)-3-(piperidin-4-ylmethoxy)-N-(5-(pyridin-4-yl)-1,3,4-thiadiazol-2-yl)benzamide] | 18
60 | COc1cc(C(=O)Nc2nnc(-c3ccncc3)s2)ccc1O[C@@H](CO)c1ccccc1 [Example 7, (R)-4-(2-hydroxy-1-phenylethoxy)-3-methoxy-N-(5-(pyridin-4-yl)-1,3,4-thiadiazol-2-yl)benzamide] | 22
61 | COc1cc(C(=O)Nc2nnc(-c3ccncc3)s2)ccc1O[C@@H](CCN1CCCC1)c1ccccc1 [Example 9, (S)-3-methoxy-4-(1-phenyl-3-(pyrrolidin-1-yl)propoxy)-N-(5-(pyridin-4-yl)-1,3,4-thiadiazol-2-yl)benzamide] | 29
62 | COc1cc(C(=O)Nc2nnc(-c3ccncc3)s2)ccc1O[C@@H](CN1CCCC1)c1ccccc1 [Example 10, (R)-3-methoxy-4-(1-phenyl-2-(pyrrolidin-1-yl)ethoxy)-N-(5-(pyridin-4-yl)-1,3,4-thiadiazol-2-yl)benzamide] | 49
